Assay results from publication PMC11428593 (Antibiotics, 2024).
In brackets after ≈: the same amount, converted by molar mass. Several values for one entry are separate records, joined by “and”; a condition that tells them apart may be missing. Equal values may be shown once. Read-outs that look alike come from different tables or passages of the source.

Columns and labels:
MRSA USA300LAC [1] = assay: MIC by broth microdilution (CLSI); format: cell-based, Staphylococcus aureus; details: for MIC: Staphylococcus aureus, MRSA USA300LAC, MHB, 37 °C, 16 h, read-out: MIC
Procedure: (§1) The MIC values of the alkyl pyridinol derivatives against the S. aureus strain ATCC 25923, MRSA strains ATCC 33591, ATCC BAA-44, and USA300LAC, as well as the P. aeruginosa strain ATCC 27853, were determined by following the CLSI guidelines for the broth microdilution antibiotic sensitivity testing protocol. In brief, the overnight cultures were diluted into Mueller Hinton Broth (MHB) to a final inoculum concentration of 5 × 10^5 CFU/mL (O.D600nm = 0.00001) and dispensed into a 96-well polystyrene plate (Alkali Scientific, Fort Lauderdale, FL, USA). Alkyl pyridine compounds were diluted into inoculated MHB to the indicated concentrations from stock solutions that would allow for DMSO concentrations below 5%, resulting in a total volume of 200 μL per well. The plates were subsequently incubated at 37 °C for 16 h at 300 rpm. The MIC values, which are defined as the lowest compound concentration that inhibited growth, were determined from three biological replicates.

[2] = tested on: S. aureus strain USA300LAC; assay: Checkerboard assay with JC-01-074 (FIC index); format: cell-based, Staphylococcus aureus; details: MHB, 37 °C, 20 h, antibiotic combined with JC-01-074
Procedure: Therefore, we tested whether the membrane-disrupting effects of JC-01-074 could increase the sensitivity of the S. aureus strain USA300LAC to antibiotics of different classes; for instance, by facilitating their uptake into the cytoplasm. […] Antibiotic concentrations were prepared by the microbroth dilution in MHB based on their MIC values (Table 1) to obtain the final concentrations as outlined in the 96-well plate scheme for each antibiotic tested (Supplementary Figure S3). Overnight USA300LAC cultures were diluted to 5 × 10^5 CFU/mL in MHB, and the growth was recorded at 37 °C and 200 rpm for 20 h in the presence and absence of the indicated antibiotic.
FICs were calculated as the ratio of the MIC of the antimicrobial in combination with the MIC of the antimicrobial alone. Interactions were categorized as synergistic (<0.5), additive or no interaction (0.5–2), and antagonistic (>2). FICs were calculated from three biological replicates.
Following previous studies, the checkerboard assay was employed to determine whether JC-01-074 had synergistic effects in combination with members of different antibiotic classes. The indicated antibiotics tested in combination were first serially diluted two-fold in MHB on a longitudinal axis in a 96-well polystyrene plate. JC-01-074 was then serially diluted two-fold across the 96-well plate horizontal axis. The plates were inoculated with USA300LAC to a final inoculum concentration of 5 x10^5 CFU/mL (O.D.600nm = 0.0001) and incubated overnight at 37 °C for 20 h. The growth was measured at 600 nm in a Tecan 200 Infinite Pro microplate reader. The fractional inhibitory concentration was calculated as follows:FIC = MICJC-01-074 + antibiotics/[…]
The classification of interactions was based on the FIC index: interactions were categorized as synergistic (FIC ≤ 0.5), additive/no interaction (FIC 0.5–2.0), and antagonistic (FIC > 2.0).

P. aeruginosa ATCC 27853 = assay: MIC by broth microdilution (CLSI); format: cell-based; details: Pseudomonas aeruginosa, ATCC27853, MHB, 37 °C, 16 h
Description: (§2) To assess the impact of the nitrogen position in our newly synthesized anaephene derivates, we analyzed their antimicrobial activities against various S. aureus strains, including ATCC 25,923 and the two methicillin-resistant S. aureus (MRSA) strains ATCC 33,591 and ATCC BAA-44. […] We determined the minimum inhibitory concentrations (MIC) of each of our compounds against the different bacterial strains by broth microdilution following the CLSI guidelines. As expected, all five compounds tested were completely ineffective against the Gram-negative P. aeruginosa strain ATCC 27,853 (Table 1).
as §1

S. aureus ATCC 25923 = assay: MIC by broth microdilution (CLSI); format: cell-based; details: Staphylococcus aureus, ATCC25923, MHB, 37 °C, 16 h
Description: as §2, §1

MRSA ATCC 33591 = assay: MIC by broth microdilution (CLSI); format: cell-based; details: Staphylococcus aureus, MHB, 37 °C, 16 h
Description: as §2, §1

MRSA ATCC BAA-44 = assay: MIC by broth microdilution (CLSI); format: cell-based; details: Staphylococcus aureus, MHB, 37 °C, 16 h
Description: as §2, §1

S. aureus/MRSA strains = assay: MIC by broth microdilution, S. aureus/MRSA strains; format: cell-based, Staphylococcus aureus; details: for MIC: Staphylococcus aureus, MRSA, S. aureus/MRSA strains tested, strain not singled out, read-out: MIC
Description: as §2, §1

[3] = tested on: 3T3 mouse embryonic fibroblast cells; assay: MTT cytotoxicity assay; format: cell-based; details: 3T3 cells; for IC50: Mus musculus, NIH3T3, 24 h
Procedure: To gauge the potential for toxicity of the new alkyl pyridinol derivates, we tested their cytotoxicity by examining the metabolic activity of 3T3 mouse embryonic fibroblast cells using the tetrazolium dye 3-(4,5-dimethylthiazol-2-yl)-2,5-diphenyltetrazolium bromide (MTT), as has been done before. The dye is reduced by NAD(P)H-dependent cellular oxidoreductases, resulting in the formation of the insoluble formazan with its purple color, which can be quantified. 3T3 cells were treated with different concentrations of the alkyl pyridinol compounds for 24 h, and the absorbance of the MTT-treated cell culture supernatant was measured at 540 nm. Absorbances were plotted against concentrations of the compound added (Supplementary Figure S2), and IC50, the concentration of a drug required for 50% metabolic inhibition, was calculated for each compound. […] However, the concentrations at which these compounds compromise 3T3 mouse embryonic fibroblast cells are well above their reported MICs (Table 2).
3T3 cells (male mouse embryonic fibroblast Flp-In cells, Thermo Fisher, Waltham, MA, USA) were cultured in D-MEM (Corning, Corning, NY, USA) supplemented with 10% Fetal Clone III (Cytiva Hyclone, Bengaluru, India) and L-Glutamine (Alfa Aesar, Haverhill, MA, USA) at 37 °C and 5% CO2. To determine the compound’s toxicity, 3T3 cells were seeded at a density of 10,000 cells/well into 96-well plates (Fisherbrand, Waltham, MA, USA) and cultured as described above. After 16 h, the culture medium was extracted and replaced by supplemented D-MEM without phenol red (Corning, Glendale, AZ, USA) containing individual compounds in the indicated concentrations. Furthermore, 1% sodium dodecyl sulfate (SDS) and 2% dimethyl sulfoxide (DMSO), equivalent to the volume of the DMSO in the highest compound concentration, were used as the cell death and vehicle control, respectively. Moreover, 16 h after compound treatment, the culture medium was extracted again and replaced by fresh supplemented D-MEM without phenol red. Subsequently, 10 µL of 5 mg/mL MTT reagent (Alfa Aesar, Haverhill, MA, USA), dissolved in DMSO, was added to each well, and the cells were incubated for 2 h at 37 °C and 5% CO2. Next, 85 µL of the culture supernatant was removed from each well, mixed with 50 µL of DMSO, and incubated in an optical grade 96-well plate (Fisherbrand, Waltham, MA, USA) in a shaking incubator at 37 °C and 250 rpm. The absorbance of the MTT-treated cell culture supernatant was measured at 540 nm in an ELx808 plate reader (Biotek, Winooski, VT, USA).

USA300LAC cells = assay: Propidium iodide uptake assay (membrane damage); format: cell-based, Staphylococcus aureus; details: up to 2× MIC, 1 h exposure
Description: The alkyl pyridinol derivates synthesized in this study are characterized by high lipophilicity. To determine whether and to what extent these compounds incorporate into and disrupt the phospholipid bilayer of the S. aureus cell envelope, we performed a propidium iodide (PI) uptake assay. Given the membrane-impermeable nature of PI, the fluorophore can be used to assess membrane disruption in cells by measuring its non-specific interaction with DNA, which leads to enhanced fluorescence. […] The extent of membrane damage caused by JC-01-074 occurred in a dose-dependent manner.
Figure 4 JC-01-074 causes significant membrane damage in S. aureus. Membrane damage was evaluated via propidium iodide (PI) staining. […] Treatment of USA300LAC with 2.5% DMSO, 4 µg/mL vancomycin, and 0.25% SDS were included as negative and positive controls, respectively. Cells were collected, washed, resuspended in PBS, and stained with 1 µM PI. PI fluorescence was measured (exc./em. wavelengths: 535/615 nm) and normalized to OD600nm. One-way ANOVA, Dunnett’s multiple-comparison test (* p < 0.05, **** p < 0.0001); (n = 3, ±S.D.).
The plasma membrane integrity was determined using the Propidium Iodide Uptake assay, as previously described. Briefly, the overnight cultures of USA300LAC were diluted into fresh TSB media, grown to an early log phase at 37 °C and 300 rpm, and treated with either DMSO, an alkyl pyridinol derivate, vancomycin, or SDS at the indicated concentrations for 1 h. Following two washing steps, the cells were then resuspended in phosphate-buffered saline (PBS), pH = 7.4, and subsequently stained with 1 µM propidium iodide (PI). The PI fluorescence intensity was determined at an excitation wavelength of 535 nm and an emission wavelength of 615 nm.

MRSA USA300LAC [4] = assay: Minimal bactericidal concentration (MBC); format: cell-based, Staphylococcus aureus; details: for bactericidal or bacteriostatic effect: USA300LAC, in words
Procedure: In brief, 10 µL of each culture was serially diluted and plated onto prewarmed LB agar and incubated overnight at 37 °C under static conditions to observe the colony-forming units (CFUs). The concentration at which no CFUs were observed was recorded as the MBC.

[5] = 24 h treatment, mean ± S.D., read-out: IC50

Row | MIC (MRSA USA300LAC [1]) | MIC (P. aeruginosa ATCC 27853) | MIC (S. aureus ATCC 25923) | MIC (MRSA ATCC 33591) | MIC (MRSA ATCC BAA-44) | Structure (SMILES) | interaction with JC-01-074 (sum of FIC values) [2] | IC50 [3, 5] | also measured
1 | 0.125 µg/mL (≈ 0.281 µM) |  |  |  |  | C[C@H]1c2cccc(O)c2C(=O)C2=C(O)[C@]3(O)C(=O)C(C(N)=O)=C(O)[C@@H](N(C)C)[C@@H]3[C@@H](O)[C@@H]21 [Doxycycline] | antagonistic (antagonistic (FIC > 2.0)) |  | 
2 | 4 µg/mL (≈ 12.4 µM) |  |  |  |  | O=C(N[C@H](CO)[C@H](O)c1ccc([N+](=O)[O-])cc1)C(Cl)Cl [Chloramphenicol] |  |  | 
3 |  |  |  |  |  | CCCCCCCCCC(=O)N[C@@H](Cc1c[nH]c2ccccc12)C(=O)N[C@H](CC(N)=O)C(=O)N[C@@H](CC(=O)O)C(=O)N[C@@H]1C(=O)NCC(=O)N[C@@H](CCCN)C(=O)N[C@@H](CC(=O)O)C(=O)N[C@H](C)C(=O)N[C@@H](CC(=O)O)C(=O)NCC(=O)N[C@H](CO)C(=O)N[C@@H]([C@H](C)CC(=O)O)C(=O)N[C@@H](CC(=O)c2ccccc2N)C(=O)O[C@@H]1C [daptomycin] |  |  | MIC (1× MIC as used for microscopy) (MRSA USA300LAC [1]; USA300LAC, stated in figure legend): 4 µg/mL
4 |  |  |  |  |  | O=C(O)c1cn(C2CC2)c2cc(N3CCNCC3)c(F)cc2c1=O [Ciprofloxacin] | antagonistic (antagonistic (FIC > 2.0)) |  | 
5 | 2.33 µg/mL (≈ 6.67 µM) |  |  |  |  | CC1(C)S[C@@H]2[C@H](NC(=O)[C@H](N)c3ccccc3)C(=O)N2[C@H]1C(=O)O [Ampicillin] | additive (additive/no interaction (FIC 0.5–2.0)) |  | 
6 |  | > 128 µg/mL | > 128 µg/mL | > 128 µg/mL | > 128 µg/mL | CCCCCCCCCC#Cc1cc(O)cc(C#CCCCCCCCCC)n1 [JC-01-083] |  | 78.2 µM and 31 µg/mL | antimicrobial activity against S. aureus/MRSA strains (S. aureus/MRSA strains; in words): completely inactive; IC50 of single biological replicates (Figure S2) ([3]; 24 hours, one value per biological replicate, listed as JC-01-83): 32 µg/ml and 43.5 µg/ml and 27.7 µg/ml and 20.8 µg/ml
7 | 32 µg/mL (≈ 98.7 µM) | > 128 µg/mL | 1 µg/mL (≈ 3.08 µM) | 0.5 µg/mL (≈ 1.54 µM) | 1 µg/mL (≈ 3.08 µM) | CCCCCCCCCC#Cc1cc(O)cc(Br)n1 [EA-02-009] |  | 107 ± 82.3 µM | MIC (S. aureus/MRSA strains): 0.5 to 1 µg/mL (≈ 1.54 to 3.08 µM); IC50 of single biological replicates (Figure S2) ([3]; 24 hours, one value per biological replicate, listed as EA-02-09): 16.1 µg/ml and 17.4 µg/ml and 31.4 µg/ml and 73.2 µg/ml; changes in PI intensity (USA300LAC cells): minimal changes; MBC (MRSA USA300LAC [4]; Staphylococcus aureus, MRSA USA300LAC, concentration at which no CFUs were observed): > 128 µg/mL; bactericidal or bacteriostatic effect (MRSA USA300LAC [4]): bacteriostatic; bactericidal or bacteriostatic effect (MRSA USA300LAC [4]; listed as EA-002-009): no significant killing
8 | 1 µg/mL (≈ 2.09 µM) |  |  |  |  | CNC(C)C1CCC(N)C(OC2C(N)CC(N)C(OC3OCC(C)(O)C(NC)C3O)C2O)O1 (stereo not drawn) [Gentamycin] | additive (additive/no interaction (FIC 0.5–2.0)) |  | 
9 |  | > 128 µg/mL | 32 µg/mL (≈ 130 µM) | 32 µg/mL (≈ 130 µM) | 32 µg/mL (≈ 130 µM) | CCCCCCCCCC#Cc1cc(O)ccn1 [EA-02-011] |  | 43.6 µM and 10.7 µg/mL | MIC (S. aureus/MRSA strains): 32 µg/mL (≈ 130 µM); IC50 of single biological replicates (Figure S2) ([3]; 24 hours, one value per biological replicate, listed as EA-02-11): 10.9 µg/ml and 8.6 µg/ml; IC50 ([3]; 24 hours, one value per biological replicate, read-out: IC50 of single biological replicates (Figure S2)): 12.7 µg/mL
